Test results as given in PubChem BioAssay (NCI).
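Dose response: 5 concentrations. Exposure: 48 h. Format: 96-well plates. Endpoint: linear interpolation; highest concentration if not reached. At the TGI there is no net growth.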

Experiments:
Test in all cases: NCI-60 cell line screen, 48 h
EKVX NSCLC = test system: EKVX NSCLC
LOX IMVI melanoma = test system: LOX IMVI melanoma
UACC-62 melanoma = test system: UACC-62 melanoma
DMS 273 small cell lung = test system: DMS 273 small cell lung
XF 498 CNS = test system: XF 498 CNS
SNB-78 CNS = test system: SNB-78 CNS
MOLT-4 leukemia = test system: MOLT-4 leukemia
DMS 114 small cell lung = test system: DMS 114 small cell lung
A549 NSCLC = test system: A549 NSCLC
SNB-19 CNS = test system: SNB-19 CNS
SK-MEL-5 melanoma = test system: SK-MEL-5 melanoma
SW-620 colon = test system: SW-620 colon
M19-MEL melanoma = test system: M19-MEL melanoma
SR leukemia = test system: SR leukemia
NCI-H522 lung = test system: NCI-H522 lung
SK-MEL-28 melanoma = test system: SK-MEL-28 melanoma
RXF 393 renal = test system: RXF 393 renal
SF-539 CNS = test system: SF-539 CNS
M14 melanoma = test system: M14 melanoma
OVCAR-4 ovarian = test system: OVCAR-4 ovarian
SK-OV-3 ovarian = test system: SK-OV-3 ovarian
CAKI-1 renal = test system: CAKI-1 renal
NCI-H460 lung = test system: NCI-H460 lung
SNB-75 CNS = test system: SNB-75 CNS
MALME-3M melanoma = test system: MALME-3M melanoma
OVCAR-3 ovarian = test system: OVCAR-3 ovarian
SF-295 CNS = test system: SF-295 CNS
OVCAR-5 ovarian = test system: OVCAR-5 ovarian
TK-10 renal = test system: TK-10 renal
NCI-H23 lung = test system: NCI-H23 lung
HOP-92 NSCLC = test system: HOP-92 NSCLC
UO-31 renal = test system: UO-31 renal
U251 CNS = test system: U251 CNS
OVCAR-8 ovarian = test system: OVCAR-8 ovarian
HCC-2998 colon = test system: HCC-2998 colon
KM12 colon = test system: KM12 colon
K-562 leukemia = test system: K-562 leukemia
SK-MEL-2 melanoma = test system: SK-MEL-2 melanoma
IGROV1 ovarian = test system: IGROV1 ovarian
HOP-62 NSCLC = test system: HOP-62 NSCLC
HCT-116 colon = test system: HCT-116 colon
HT29 colon = test system: HT29 colon
SF-268 CNS = test system: SF-268 CNS
DLD-1 colon = test system: DLD-1 colon
COLO 205 colon = test system: COLO 205 colon
NCI-H226 lung = test system: NCI-H226 lung
CCRF-CEM leukemia = test system: CCRF-CEM leukemia
786-0 renal = test system: 786-0 renal
ACHN renal = test system: ACHN renal
HL-60(TB) leukemia = test system: HL-60(TB) leukemia
HOP-18 NSCLC = test system: HOP-18 NSCLC
SN12C renal = test system: SN12C renal
HCT-15 colon = test system: HCT-15 colon
RXF-631 renal = test system: RXF-631 renal
KM20L2 colon = test system: KM20L2 colon
A498 renal = test system: A498 renal
UACC-257 melanoma = test system: UACC-257 melanoma
LXFL 529 NSCLC = test system: LXFL 529 NSCLC

## C=CCN1C(=O)NC(=O)/C(=C/c2c3ccccc3cc3ccccc23)C1=O
EKVX NSCLC
  TGI: 48.8 µM
LOX IMVI melanoma
  TGI: 75.4 µM
UACC-62 melanoma
  TGI: 50.4 µM
DMS 273 small cell lung
  TGI: 43.4 µM
XF 498 CNS
  TGI: 40.7 µM
SNB-78 CNS
  TGI: > 100 µM
MOLT-4 leukemia
  TGI: 48.9 µM
DMS 114 small cell lung
  TGI: 45.2 µM
A549 NSCLC
  TGI: 58.2 µM
SNB-19 CNS
  TGI: 47.7 µM
SK-MEL-5 melanoma
  TGI: > 10 µM
SW-620 colon
  TGI: > 100 µM
M19-MEL melanoma
  TGI: > 100 µM
SR leukemia
  TGI: 74 µM
NCI-H522 lung
  TGI: 44.8 µM
SK-MEL-28 melanoma
  TGI: 68.1 µM
RXF 393 renal
  TGI: 34.6 µM
SF-539 CNS
  TGI: 38.1 µM
M14 melanoma
  TGI: 37.2 µM
OVCAR-4 ovarian
  TGI: 47.5 µM
SK-OV-3 ovarian
  TGI: 66 µM
CAKI-1 renal
  TGI: 40.3 µM
NCI-H460 lung
  TGI: 37 µM
SNB-75 CNS
  TGI: 45 µM
MALME-3M melanoma
  TGI: 39.3 µM
OVCAR-3 ovarian
  TGI: 42.3 µM
SF-295 CNS
  TGI: 38.3 µM
OVCAR-5 ovarian
  TGI: 44.4 µM
TK-10 renal
  TGI: 37.4 µM
NCI-H23 lung
  TGI: > 10 µM
HOP-92 NSCLC
  TGI: 54.4 µM
UO-31 renal
  TGI: 37 µM
U251 CNS
  TGI: 36.5 µM
OVCAR-8 ovarian
  TGI: 55 µM
HCC-2998 colon
  TGI: 28.4 µM
KM12 colon
  TGI: 31.8 µM
K-562 leukemia
  TGI: 66.5 µM
SK-MEL-2 melanoma
  TGI: 38.7 µM
IGROV1 ovarian
  TGI: > 10 µM
HOP-62 NSCLC
  TGI: 33.2 µM
HCT-116 colon
  TGI: 30.8 µM
HT29 colon
  TGI: 37.9 µM
SF-268 CNS
  TGI: 60.8 µM
DLD-1 colon
  TGI: 44.7 µM
COLO 205 colon
  TGI: 35.3 µM
NCI-H226 lung
  TGI: 45.9 µM
CCRF-CEM leukemia
  TGI: > 100 µM

## O/N=C1/C(=C/c2ccc(OCc3ccccc3)cc2)CCCC1C(NO)c1ccc(OCc2ccccc2)cc1 (stereo not drawn)
EKVX NSCLC
  TGI: > 100 µM
LOX IMVI melanoma
  TGI: 24.5 µM
786-0 renal
  TGI: > 100 µM
DMS 273 small cell lung
  TGI: > 100 µM
ACHN renal
  TGI: > 100 µM
MOLT-4 leukemia
  TGI: > 100 µM
A549 NSCLC
  TGI: > 100 µM
SNB-19 CNS
  TGI: > 100 µM
SK-MEL-5 melanoma
  TGI: > 100 µM
SW-620 colon
  TGI: > 100 µM
HL-60(TB) leukemia
  TGI: > 100 µM
M19-MEL melanoma
  TGI: > 100 µM
SR leukemia
  TGI: > 100 µM
NCI-H522 lung
  TGI: 48 µM
HOP-18 NSCLC
  TGI: > 100 µM
SK-MEL-28 melanoma
  TGI: > 100 µM
SN12C renal
  TGI: 9.54 µM
RXF 393 renal
  TGI: 24.9 µM
SF-539 CNS
  TGI: > 100 µM
M14 melanoma
  TGI: > 100 µM
OVCAR-4 ovarian
  TGI: 57.5 µM
HCT-15 colon
  TGI: > 100 µM
SK-OV-3 ovarian
  TGI: > 100 µM
CAKI-1 renal
  TGI: 73.8 µM
NCI-H460 lung
  TGI: > 100 µM
SNB-75 CNS
  TGI: 97.9 µM
RXF-631 renal
  TGI: > 100 µM
MALME-3M melanoma
  TGI: > 100 µM
OVCAR-3 ovarian
  TGI: 88.8 µM
OVCAR-5 ovarian
  TGI: > 100 µM
NCI-H23 lung
  TGI: > 100 µM
HOP-92 NSCLC
  TGI: 63.5 µM
UO-31 renal
  TGI: > 100 µM
U251 CNS
  TGI: 33.4 µM
KM20L2 colon
  TGI: > 100 µM
OVCAR-8 ovarian
  TGI: > 100 µM
HCC-2998 colon
  TGI: > 100 µM
KM12 colon
  TGI: > 100 µM
K-562 leukemia
  TGI: > 100 µM
SK-MEL-2 melanoma
  TGI: > 100 µM
IGROV1 ovarian
  TGI: > 100 µM
HOP-62 NSCLC
  TGI: > 100 µM
HCT-116 colon
  TGI: > 100 µM
HT29 colon
  TGI: > 100 µM
A498 renal
  TGI: > 100 µM
UACC-257 melanoma
  TGI: > 100 µM
DLD-1 colon
  TGI: > 100 µM
LXFL 529 NSCLC
  TGI: > 100 µM
COLO 205 colon
  TGI: > 100 µM
NCI-H226 lung
  TGI: > 100 µM
CCRF-CEM leukemia
  TGI: > 100 µM
